In test [1] the target is T1, Adenosine receptor A3 (Homo sapiens, UniProt P0DMS8).
T1 sequence (P0DMS8 whole entry): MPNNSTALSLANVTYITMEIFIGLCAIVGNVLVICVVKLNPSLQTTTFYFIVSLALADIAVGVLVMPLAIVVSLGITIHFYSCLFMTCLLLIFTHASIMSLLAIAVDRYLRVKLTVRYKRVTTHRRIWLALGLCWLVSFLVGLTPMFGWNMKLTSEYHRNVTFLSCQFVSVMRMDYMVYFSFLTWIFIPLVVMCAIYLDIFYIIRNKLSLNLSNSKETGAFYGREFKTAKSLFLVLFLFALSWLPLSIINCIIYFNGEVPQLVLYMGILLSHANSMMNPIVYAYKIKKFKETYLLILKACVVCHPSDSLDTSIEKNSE
The experiment in a line: Binding affinity to adenosine A3 receptor.

Test [2] is described as follows: Selectivity ratio of Ki for adenosine A1 receptor to Ki for adenosine A3 receptor.
Another test deals with T2, Adenosine receptor A1 (Homo sapiens, UniProt P30542).
T2 sequence (P30542 whole entry): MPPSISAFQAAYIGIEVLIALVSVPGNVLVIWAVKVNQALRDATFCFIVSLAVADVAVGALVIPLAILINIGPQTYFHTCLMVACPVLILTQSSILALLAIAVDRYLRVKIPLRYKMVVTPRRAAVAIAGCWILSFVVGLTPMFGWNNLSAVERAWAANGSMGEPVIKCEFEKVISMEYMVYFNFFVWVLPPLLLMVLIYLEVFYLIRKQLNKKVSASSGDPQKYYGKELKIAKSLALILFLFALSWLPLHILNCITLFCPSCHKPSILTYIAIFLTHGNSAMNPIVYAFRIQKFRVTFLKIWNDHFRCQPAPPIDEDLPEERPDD
The experiment in a line: Displacement of [125I]ABA from human recombinant adenosine A1 receptor by rapid filtration technique. Background: In a radioligand displacement assay an active substance lowers the binding of a labelled ligand.

Test [3] has as its target T3, Adenosine receptor A2a (Homo sapiens, UniProt P29274). As to the kind of experiment: Displacement of [3H]ZM241385 from human recombinant adenosine A2A receptor by rapid filtration technique.
For test [4], the target named is T1, Adenosine receptor A3. The experiment in a line: Displacement of [125I]ABA from human recombinant adenosine A3 receptor by rapid filtration technique.
Test [5] deals with Adenosine receptors; A1 & A3 (Homo sapiens) (UniProt P30542+P0DMS8). As to the kind of experiment: Selectivity ratio of Ki for human recombinant adenosine A1 receptor to Ki for human recombinant adenosine A3 receptor.
Test [6] relates to H9c2. The experiment in a line: Cardioprotective effect against hypoxic simulated ischemia in rat H9c2 cells assessed as reduction in cell death at 100 nM after 12 hrs by propidium iodide staining-based inverted microscopy. The test is classed as functional. To be noted: for inhibition at 0.1 µM: H9c2, 12 h.
Test [7] concerns H9c2. As to the kind of experiment: Cardioprotective effect against hypoxic simulated ischemia in rat H9c2 cells assessed as reduction in cell death at 10 nM after 12 hrs by propidium iodide staining-based inverted microscopy. The class given is functional.
In test [8] the test system is H9c2. The experiment in a line: Cardioprotective effect against hypoxic simulated ischemia in rat H9c2 cells assessed as reduction in cell death at 100 nM after 12 hrs by propidium iodide staining-based inverted microscopy in presence of adenosine A3 receptor antagonist MRS-1191. The class given is functional.
The target in test [9] is T3, Adenosine receptor A2a. The experiment in a line: Displacement of [3H]ZM241385 from human recombinant adenosine A2A receptor at 10 uM by rapid filtration technique.

Calls of active or inactive are those of the source. The calls are words filed in the database; no cut-off is given here. Some results are limits rather than exact numbers.

One may read the Ki as a measure of affinity in units of concentration, obtained from inhibition or displacement. As usually defined, the inhibition is the share of the control response that was lost under treatment.

T3 sequence (P29274 whole entry): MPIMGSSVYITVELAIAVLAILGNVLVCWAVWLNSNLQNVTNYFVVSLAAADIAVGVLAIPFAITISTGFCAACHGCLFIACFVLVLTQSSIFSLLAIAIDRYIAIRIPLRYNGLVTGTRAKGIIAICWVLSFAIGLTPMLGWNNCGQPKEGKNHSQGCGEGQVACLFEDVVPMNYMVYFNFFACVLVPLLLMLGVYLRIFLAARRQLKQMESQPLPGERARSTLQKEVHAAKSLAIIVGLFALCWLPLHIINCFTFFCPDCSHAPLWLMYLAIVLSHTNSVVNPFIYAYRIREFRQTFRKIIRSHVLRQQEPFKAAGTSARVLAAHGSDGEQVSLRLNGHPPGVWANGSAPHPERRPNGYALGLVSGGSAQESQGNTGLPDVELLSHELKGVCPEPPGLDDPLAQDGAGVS

Turning to `CC1(C)c2ccc(C(=O)NCCc3ccc(Nc4ncnc5c4ncn5[C@@H]4O[C@H](CO)[C@@H](O)[C@H]4O)cc3)cc2C(C)(C)N1[O]`, the inhibition constant (Ki) at Adenosine receptor A3 [1] worked out at 0.007 µM. Moreover, the Ratio Ki in test [2] stood at 3.
Consider `CNC(=O)[C@H]1O[C@@H](n2cnc3c(NCc4ccc(CNC(=O)c5cc(OC)c(OC)c(OC)c5)cc4)ncnc32)[C@H](O)[C@@H]1O`, for which the inhibition constant (Ki) at Adenosine receptor A1 is 0.0768 µM; at Adenosine receptor A2a [3] it was above 10 µM; at Adenosine receptor A3 [4], 0.00504 µM. Besides, in test [5], the Ratio Ki was determined as 15. The inhibition entry with H9c2 [6] was “Active”. Moreover, the inhibition result in the test on H9c2 [7] and in the test on H9c2 [8] was “inactive” throughout.
In the case of `CNC(=O)[C@H]1O[C@@H](n2cnc3c(NCc4ccc5c(c4)C(C)(C)N([O])C5(C)C)ncnc32)[C@H](O)[C@@H]1O`, the inhibitory constant (Ki) is 1.29 µM on Adenosine receptor A1, above 10 µM on Adenosine receptor A2a [3] and 0.32 µM on Adenosine receptor A3 [4]. Moreover, the Ratio Ki in [5] came to 4.
Turning to `CNC(=O)[C@H]1O[C@@H](n2cnc3c(NCc4ccc(CNC(=O)c5cc(C(C)(C)C)c(O)c(C(C)(C)C)c5)cc4)ncnc32)[C@H](O)[C@@H]1O`, the Ki was 0.105 µM on Adenosine receptor A1, above 10 µM at Adenosine receptor A2a [3] and 0.00563 µM on Adenosine receptor A3 [4]. Besides, the Ratio Ki in test [5] turned out to be 19. For the same compound, the inhibition entry in the test with H9c2 [6] was “Active”. Further, the inhibition entry in the test with H9c2 [7] and with H9c2 [8] was “inactive” in each case.
For the compound `CNC(=O)[C@H]1O[C@@H](n2cnc3c(NCCc4cc(C(C)(C)C)c(O)c(C(C)(C)C)c4)ncnc32)[C@H](O)[C@@H]1O`, the results for the Ki on Adenosine receptor A1, at Adenosine receptor A2a [3] and on Adenosine receptor A3 [4] were 0.62 µM, above 10 µM and 0.009 µM, respectively. For the same compound, the Ratio Ki in [5] is 69.
As for `CNC(=O)[C@H]1O[C@@H](n2cnc3c(Nc4ccc(CCNC(=O)c5cc(C(C)(C)C)cc(C(C)(C)C)c5)cc4)ncnc32)[C@H](O)[C@@H]1O`, the inhibitory constant (Ki) on Adenosine receptor A1 is 0.245 µM; at Adenosine receptor A2a [3], above 10 µM; on Adenosine receptor A3 [4], 0.00225 µM. For the same compound, the Ratio Ki in test [5] came to 109. Also, the inhibition entry in the test with H9c2 [6] is “Active”. For the same compound, the inhibition entry in the test on H9c2 [7] and in the test on H9c2 [8] was “inactive” in each case.
On to `CNC(=O)[C@H]1O[C@@H](n2cnc3c(Nc4ccc(CCNC(=O)c5cc(OC)c(OC)c(OC)c5)cc4)ncnc32)[C@H](O)[C@@H]1O`, for which the values for the inhibition constant (Ki) at Adenosine receptor A1 and on Adenosine receptor A3 [4] were 0.0262 µM and 0.00426 µM, respectively. In addition, on Adenosine receptor A2a [9], the inhibition was determined as 27%. Further, the Ratio Ki in test [5] amounted to 6.2. Besides, the inhibition entry with H9c2 [6] was “Active”. Also, the inhibition result in the test on H9c2 [7] and in the test with H9c2 [8] was “inactive” each time.
For the compound `CNC(=O)[C@H]1O[C@@H](n2cnc3c(NC4CC(C)(C)N([O])C(C)(C)C4)ncnc32)[C@H](O)[C@@H]1O`, the figures for the inhibitory constant (Ki) on Adenosine receptor A1, at Adenosine receptor A2a [3] and on Adenosine receptor A3 [4] were 1.89 µM, above 10 µM and 4.16 µM, respectively. Further, in test [5], the Ratio Ki is 0.45.
For `CC1(C)CC(NC2NC=Nc3c2ncn3[C@@H]2O[C@H](CO)[C@@H](O)[C@H]2O)CC(C)(C)N1[O]` (stereo partly drawn), in that order: 0.05 µM, above 10 µM, 8.56 µM and 0.0058.
On to `CNC(=O)[C@H]1O[C@@H](n2cnc3c(NCc4cccc(I)c4)ncnc32)[C@H](O)[C@@H]1O` [IB-MECA], for which, in the test with H9c2 [6], the inhibition result is “Active” and the inhibition at 0.1 µM is 54.1%. Also, in the test on H9c2 [7], the inhibition result was “inactive”. In addition, in the test on H9c2 [8], the inhibition entry is “inactive”.
Consider `CNC(=O)[C@H]1O[C@@H](n2cnc3c(Nc4ccc(CCNC(=O)c5ccc6c(c5)C(C)(C)N([O])C6(C)C)cc4)ncnc32)[C@H](O)[C@@H]1O`, for which the Ki is 0.0531 µM on Adenosine receptor A1, above 10 µM at Adenosine receptor A2a [3] and 0.025 µM at Adenosine receptor A3 [4]. Moreover, the Ratio Ki in test [5] came out at 2.1.
For `CNC(=O)[C@H]1O[C@@H](n2cnc3c(Nc4ccc5c(c4)C(C)(C)NC5(C)C)ncnc32)[C@H](O)[C@@H]1O`, in that order: 1.17 µM, above 10 µM, 0.07 µM and 16.
For `CNC(=O)[C@H]1O[C@@H](n2cnc3c(NCC4CC(C)(C)N([O])C4(C)C)ncnc32)[C@H](O)[C@@H]1O` (stereo partly drawn), in that order: 0.57 µM, above 10 µM, 1.02 µM and 0.56.
Turning to `CC1(C)c2ccc(NC3NC=Nc4c3ncn4[C@@H]3O[C@H](CO)[C@@H](O)[C@H]3O)cc2C(C)(C)N1[O]` (stereo partly drawn), at Adenosine receptor A2a [3], the inhibitory constant (Ki) is above 10 µM.
Take `CC1(C)CC(NC2NC=Nc3c2ncn3[C@@H]2O[C@H](CO)[C@@H](O)[C@H]2O)CC(C)(C)N1` (stereo partly drawn): the Ratio Ki in test [5] worked out at 0.063.
With `CC1(C)CC(CNc2ncnc3c2ncn3[C@@H]2O[C@H](CO)[C@@H](O)[C@H]2O)C(C)(C)N1[O]` (stereo partly drawn), the Ki at Adenosine receptor A2a [3] was above 10 µM; on Adenosine receptor A3 [1], 0.05 µM. Besides, the Ratio Ki was 0.0024 in test [5] and 400 in [2].
As for `CC(C)(C)c1cc(CCNc2ncnc3c2ncn3[C@@H]2O[C@H](CO)[C@@H](O)[C@H]2O)cc(C(C)(C)C)c1O`, the values for the inhibition constant (Ki) on Adenosine receptor A1 and on Adenosine receptor A3 [4] were 0.15 µM and 0.03 µM, respectively. Further, on Adenosine receptor A2a [9], the inhibition was 20%. In addition, in test [5], the Ratio Ki is 5.
For the compound `CNC(=O)[C@H]1O[C@@H](n2cnc3c(NC4CC(C)(C)NC(C)(C)C4)ncnc32)[C@H](O)[C@@H]1O`, the Ki was 0.96 µM at Adenosine receptor A1, above 10 µM on Adenosine receptor A2a [3] and 2.48 µM at Adenosine receptor A3 [4]. In addition, in test [5], the Ratio Ki came to 0.39.
Taken in the same sequence, the figures for `CNC(=O)[C@H]1O[C@@H](n2cnc3c(Nc4ccc5c(c4)C(C)(C)N([O])C5(C)C)ncnc32)[C@H](O)[C@@H]1O` were 0.8 µM, above 10 µM, 0.53 µM and 1.5.
For `CNC(=O)[C@H]1O[C@@H](n2cnc3c(NCc4ccc(NC(=O)CCC(=O)NCCc5cc(C(C)(C)C)c(O)c(C(C)(C)C)c5)cc4)ncnc32)[C@H](O)[C@@H]1O`, in that order: 0.0421 µM, above 10 µM, 0.00222 µM and 19.
For the compound `CNC(=O)[C@H]1O[C@@H](n2cnc3c(NCc4ccc(CNC(=O)c5cc(C(C)(C)C)cc(C(C)(C)C)c5)cc4)ncnc32)[C@H](O)[C@@H]1O`, the Ki at Adenosine receptor A1 is 0.128 µM; on Adenosine receptor A2a [3], above 10 µM; at Adenosine receptor A3 [4] it was 0.00902 µM. In [5], the Ratio Ki worked out at 14. In addition, in the test on H9c2 [6], the inhibition at 0.1 µM was 68.3%. Besides, the inhibition result in the test on H9c2 [7] and in the test on H9c2 [8] was “inactive” throughout.
With `CNC(=O)[C@H]1O[C@@H](n2cnc3c(Nc4ccc(CCNC(=O)c5cc(C(C)(C)C)c(O)c(C(C)(C)C)c5)cc4)ncnc32)[C@H](O)[C@@H]1O`, the Ki was 0.243 µM on Adenosine receptor A1, above 10 µM on Adenosine receptor A2a [3] and 0.045 µM on Adenosine receptor A3 [4]. In addition, the Ratio Ki in test [5] turned out to be 5.4.
Turning to `CC1(C)NC(C)(C)c2cc(Nc3ncnc4c3ncn4[C@@H]3O[C@H](CO)[C@@H](O)[C@H]3O)ccc21`, the inhibition constant Ki was 0.29 µM on Adenosine receptor A1, above 10 µM at Adenosine receptor A2a [3] and 0.28 µM at Adenosine receptor A3 [4]. Besides, in test [5], the Ratio Ki was 1.
Taken in the same sequence, the figures for `CC1(C)c2ccc(CNC3NC=Nc4c3ncn4[C@@H]3O[C@H](CO)[C@@H](O)[C@H]3O)cc2C(C)(C)N1[O]` (stereo partly drawn) were 1.14 µM, above 10 µM, 0.28 µM and 4.1.

The values are drawn from ChEMBL document CHEMBL1158581, “Synthesis and evaluation of new N6-substituted adenosine-5'-N-methylcarboxamides as A3 adenosine receptor agonists” (Bioorg Med Chem, 2010).
